Publication PMC3066128 (PLoS Biology, 2011)
Read-outs that look alike come from different tables or passages of the source.

Experiments:
human α7 nAChR = molecular target: T1, human α7 nAChR (Homo sapiens, UniProt P36544); experiment: biochemical; format: binding
T1 construct: expressed in transfected cells
Description: Human neuroblastoma cells (SH-SY5Y) stably expressing human α7 nAChR were obtained from Christian Fuhrer (Department of Neurochemistry, Brain Research Institute, University of Zurich). The cells were maintained in DMEM/F12 (Dulbecco's Modified Eagle Medium / Nutrient Mixture F-12) supplemented with 10% fetal calf serum (FCS), 50 IU/mL penicillin, 50 µg/mL streptomycin and 0.1 mg/ml geneticin in 5% CO2 humidified atmosphere at 37°C. Batches of cells from several passages were washed 3x with PBS, harvested and after centrifuging aliquots, the cell-pellets were stored at -80°C until use. Although there appeared to be little batch-to-batch variation, only one passage was used for the triplicate experiments as described below. […] The SPA beads were allowed to settle for 2-4 h and the radioactivity was measured in a Wallac 1450 MicroBeta liquid scintillation counter. All radioligand binding data were evaluated by a nonlinear, least-squares curve fitting procedure using Graphpad Prism (version 5.0a, GraphPad Software, Inc., San Diego, CA). […]
Frozen cell pellets with the human α7 nAChR were thawed, homogenized in ice-cold binding buffer, sonicated before use and added at 0.1 mg/ml. […] After drying the filter-plates, scintillation fluid (MicroScint, Perkin Elmer) was added and the radioactivity was measured as above.

mouse 5-HT3R = molecular target: mouse 5-HT3R; parameters: method as in PMID 10026168; details: taken from previous study; cited from earlier work
human α7 nAChR W55A = molecular target: T2, human α7 nAChR W55A (Homo sapiens, UniProt P36544, W77A); experiment: Two-electrode voltage clamp, α7 nAChR W55A in Xenopus oocytes; format: cell-based; details: co-applied with EC50 acetylcholine
T2 construct: expressed in transfected cells; host or cells: Xenopus oocytes injected with cRNA (pMXT)
Source text: (§1) To address this question, we performed alanine-scanning mutagenesis of the homologous residues in the human GlyR or nAChR using structure-based sequence alignments with AChBP (see Figure S1). The two-electrode voltage-clamp technique was used to measure ligand potency on wild type and mutant GlyR or nAChR expressed in Xenopus oocytes. […] One of these mutants, F207A, was previously characterized in the work from Grundzinska et al..
(§2) For d-TC, previous mutagenesis studies have been carried out either on the muscle-type nAChR [1] or 5-HT3R [5],[12]. […] Both model systems either complicate the mutational analysis or make it difficult to derive conclusions that can be generalized to other CLRs. Here, we chose the human α7 nAChR to characterize the effect of homologous contact mutations on the potency of d-TC. The α7 nAChR, which is also a target of d-TC [4], is closely related to Ac-AChBP and is an attractive model system to extrapolate the results obtained from our X-ray crystal structures.
(§3) Competitive binding assays with ^3H-epibatidine were carried out as previously published with minor modifications (see Text S1). Electrophysiological assays were carried out using the two-electrode voltage clamp technique. The cDNA encoding human α1 GlyR was subcloned into pGEM-HE for oocyte expression with a PCR strategy and verified by sequencing. […]

muscle-type nAChR = test system: muscle-type nAChR; parameters: method as in PMID 8415719; details: heteropentameric muscle-type nAChR; cited from earlier work
human α7 nAChR Q117A = molecular target: T3, human α7 nAChR Q117A (Homo sapiens, UniProt P36544, Q139A); experiment: Two-electrode voltage clamp, α7 nAChR Q117A in Xenopus oocytes; format: cell-based; details: co-applied with EC50 acetylcholine
T3 construct: expressed in transfected cells; host or cells: Xenopus oocytes injected with cRNA (pMXT)
Source text: as §1, §2, §3

human α7 nAChR S36A = molecular target: T4, human α7 nAChR S36A (Homo sapiens, UniProt P36544, S58A); experiment: Two-electrode voltage clamp, α7 nAChR S36A in Xenopus oocytes; format: cell-based; details: co-applied with EC50 acetylcholine
T4 construct: expressed in transfected cells; host or cells: Xenopus oocytes injected with cRNA (pMXT)
Source text: as §1, §2, §3

human α7 nAChR E193A = molecular target: T5, human α7 nAChR E193A (Homo sapiens, UniProt P36544, E215A); experiment: Two-electrode voltage clamp, α7 nAChR E193A in Xenopus oocytes; format: cell-based; details: co-applied with EC50 acetylcholine
T5 construct: expressed in transfected cells; host or cells: Xenopus oocytes injected with cRNA (pMXT)
Source text: as §1, §2, §3

5-HT3R = details: human versus mouse 5-HT3R; cited from earlier work
human α7 nAChR S148A = molecular target: T6, human α7 nAChR S148A (Homo sapiens, UniProt P36544, S170A); experiment: Two-electrode voltage clamp, α7 nAChR S148A in Xenopus oocytes; format: cell-based; details: co-applied with EC50 acetylcholine
T6 construct: expressed in transfected cells; host or cells: Xenopus oocytes injected with cRNA (pMXT)
Source text: as §1, §2, §3

human α7 nAChR Y93A = molecular target: T7, human α7 nAChR Y93A (Homo sapiens, UniProt P36544, Y115A); experiment: Two-electrode voltage clamp, α7 nAChR Y93A in Xenopus oocytes; format: cell-based; details: co-applied with EC50 acetylcholine
T7 construct: expressed in transfected cells; host or cells: Xenopus oocytes injected with cRNA (pMXT)
Source text: as §1, §2, §3

human α7 nAChR wt = molecular target: T8, human α7 nAChR wt (Homo sapiens, UniProt P36544); experiment: Two-electrode voltage clamp, wild type α7 nAChR in Xenopus oocytes; format: cell-based; details: co-applied with EC50 acetylcholine
T8 construct: expressed in transfected cells; host or cells: Xenopus oocytes injected with cRNA (pMXT)
Source text: as §1, §2, §3

Ls-AChBP = Ls-AChBP (Lymnaea stagnalis, UniProt P58154); experiment: biochemical; format: binding
Description: (§4) Competitive binding assays with ^3H-epibatidine were carried out as previously published with minor modifications (see Text S1). Electrophysiological assays were carried out using the two-electrode voltage clamp technique. The cDNA encoding human α1 GlyR was subcloned into pGEM-HE for oocyte expression with a PCR strategy and verified by sequencing. The cDNA was linearized with NheI and transcribed with the T7 mMessage mMachine kit from Ambion. The cDNA encoding the human α7 nAChR was cloned into pMXT and linearized with BamHI for transcription with the SP6 mMessage mMachine kit from Ambion. All mutants were engineered using a Quikchange method (Stratagene) and verified by sequencing. Recordings were obtained from oocytes 2–5 d after injection with 50 nl of ∼1 ng/nl RNA. […] Student's t test was used for statistical comparison of paired observations.
Human neuroblastoma cells (SH-SY5Y) stably expressing human α7 nAChR were obtained from Christian Fuhrer (Department of Neurochemistry, Brain Research Institute, University of Zurich). […] The SPA beads were allowed to settle for 2-4 h and the radioactivity was measured in a Wallac 1450 MicroBeta liquid scintillation counter.

human α7 nAChR L119A = molecular target: T9, human α7 nAChR L119A (Homo sapiens, UniProt P36544, L141A); experiment: Two-electrode voltage clamp, α7 nAChR L119A in Xenopus oocytes; format: cell-based; details: co-applied with EC50 acetylcholine
T9 construct: expressed in transfected cells; host or cells: Xenopus oocytes injected with cRNA (pMXT)
Source text: as §1, §2, §3

human α7 nAChR G167A = molecular target: T10, human α7 nAChR G167A (Homo sapiens, UniProt P36544, G189A); experiment: Two-electrode voltage clamp, α7 nAChR G167A in Xenopus oocytes; format: cell-based; details: co-applied with EC50 acetylcholine
T10 construct: expressed in transfected cells; host or cells: Xenopus oocytes injected with cRNA (pMXT)
Source text: as §1, §2, §3

human α1 GlyR = details: taken from previous study; cited from earlier work
α1 GlyR R65A [1] = details: ref Grudzinska et al. 23; cited from earlier work
human α1 GlyR A101F = human α1 GlyR A101F (Homo sapiens, UniProt P23415, A129F); experiment: cell-based; details: for mut/wt: IC50 α1 GlyR A101F over wt
Description: as §1, §4

human α1 GlyR Q177A = human α1 GlyR Q177A (Homo sapiens, UniProt P23415, Q205A); experiment: cell-based; details: for mut/wt: IC50 α1 GlyR Q177A over wt
Description: as §1, §4

human α1 GlyR S158A = human α1 GlyR S158A (Homo sapiens, UniProt P23415, S186A); experiment: cell-based; details: for mut/wt: IC50 α1 GlyR S158A over wt
Description: as §1, §4

human α1 GlyR L127A = human α1 GlyR L127A (Homo sapiens, UniProt P23415, L155A); experiment: cell-based; details: for mut/wt: IC50 α1 GlyR L127A over wt
Description: as §1, §4

human α1 GlyR wt = human α1 GlyR wt (Homo sapiens, UniProt P23415); experiment: cell-based
Description: as §1, §4

human α1 GlyR F44A = human α1 GlyR F44A (Homo sapiens, UniProt P23415, F72A); experiment: cell-based; details: for mut/wt: IC50 α1 GlyR F44A over wt
Description: as §1, §4

human α1 GlyR S129A = human α1 GlyR S129A (Homo sapiens, UniProt P23415, S157A); experiment: cell-based; details: for mut/wt: IC50 α1 GlyR S129A over wt
Description: as §1, §4

human α1 GlyR I210A = human α1 GlyR I210A (Homo sapiens, UniProt P23415, I238A); experiment: cell-based
Description: as §1, §4

human α1 GlyR Q67A = human α1 GlyR Q67A (Homo sapiens, UniProt P23415, Q95A); experiment: cell-based; details: for mut/wt: IC50 α1 GlyR Q67A over wt
Description: as §1, §4

human α1 GlyR F207A = human α1 GlyR F207A (Homo sapiens, UniProt P23415, F235A); experiment: cell-based
Description: as §1, §4

α1 GlyR F63A [2] = details: ref Grudzinska et al. 23; cited from earlier work
α1 GlyR F63A [3] = details: IC50 α1 GlyR F63A (ref 23) over wt
α1 GlyR R65A [4] = details: IC50 α1 GlyR R65A (ref 23) over wt

human α1 GlyR L127A, sequence (P23415 29-457 L155A): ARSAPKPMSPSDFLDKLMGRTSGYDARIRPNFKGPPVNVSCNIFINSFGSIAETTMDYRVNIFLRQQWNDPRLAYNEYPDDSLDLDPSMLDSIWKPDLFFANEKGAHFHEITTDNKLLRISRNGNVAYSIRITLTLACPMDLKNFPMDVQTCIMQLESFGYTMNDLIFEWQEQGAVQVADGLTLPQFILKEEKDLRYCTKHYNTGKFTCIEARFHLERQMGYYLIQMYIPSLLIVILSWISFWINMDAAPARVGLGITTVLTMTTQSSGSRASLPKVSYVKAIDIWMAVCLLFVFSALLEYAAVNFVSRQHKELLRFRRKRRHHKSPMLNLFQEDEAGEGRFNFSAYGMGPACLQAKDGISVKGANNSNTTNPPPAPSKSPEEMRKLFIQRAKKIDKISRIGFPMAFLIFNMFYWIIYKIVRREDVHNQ
human α1 GlyR Q177A, sequence (P23415 29-457 Q205A): as the sequence (P23415 29-457 L155A) above, with A127L, Q177A counted along it
human α1 GlyR S158A, sequence (P23415 29-457 S186A): as the sequence (P23415 29-457 L155A) above, with A127L, S158A counted along it
human α1 GlyR S129A, sequence (P23415 29-457 S157A): as the sequence (P23415 29-457 L155A) above, with A127L, S129A counted along it
human α1 GlyR Q67A, sequence (P23415 29-457 Q95A): as the sequence (P23415 29-457 L155A) above, with Q67A, A127L counted along it
human α1 GlyR F44A, sequence (P23415 29-457 F72A): as the sequence (P23415 29-457 L155A) above, with F44A, A127L counted along it
human α1 GlyR A101F, sequence (P23415 29-457 A129F): as the sequence (P23415 29-457 L155A) above, with A101F, A127L counted along it
human α1 GlyR I210A, sequence (P23415 29-457 I238A): as the sequence (P23415 29-457 L155A) above, with A127L, I210A counted along it
T1 sequence (P36544 23-502): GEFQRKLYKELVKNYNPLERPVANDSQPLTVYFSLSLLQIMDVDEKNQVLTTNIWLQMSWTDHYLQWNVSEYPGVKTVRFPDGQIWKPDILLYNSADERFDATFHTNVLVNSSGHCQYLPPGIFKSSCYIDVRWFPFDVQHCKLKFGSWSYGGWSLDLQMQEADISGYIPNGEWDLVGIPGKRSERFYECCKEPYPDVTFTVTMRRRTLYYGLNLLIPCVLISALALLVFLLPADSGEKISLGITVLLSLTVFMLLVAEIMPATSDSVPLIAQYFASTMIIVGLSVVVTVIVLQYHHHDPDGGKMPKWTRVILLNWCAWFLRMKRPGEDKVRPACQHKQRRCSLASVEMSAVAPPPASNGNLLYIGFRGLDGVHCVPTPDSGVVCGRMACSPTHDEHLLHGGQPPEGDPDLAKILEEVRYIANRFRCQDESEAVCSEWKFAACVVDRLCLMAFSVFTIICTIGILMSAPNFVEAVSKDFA
T10 sequence (P36544 23-502 G189A): as the sequence (P36544 23-502) above, with G167A counted along it
human α1 GlyR F207A, sequence (P23415 29-457 F235A): as the sequence (P23415 29-457 L155A) above, with A127L, F207A counted along it
Ls-AChBP, sequence (P58154 20-229): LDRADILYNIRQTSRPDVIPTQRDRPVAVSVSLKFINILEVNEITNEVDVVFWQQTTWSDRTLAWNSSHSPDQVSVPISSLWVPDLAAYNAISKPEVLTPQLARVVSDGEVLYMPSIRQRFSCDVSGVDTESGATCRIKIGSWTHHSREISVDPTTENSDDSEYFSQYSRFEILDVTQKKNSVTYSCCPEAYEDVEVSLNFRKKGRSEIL
T8 sequence (P36544 23-502): as the sequence (P36544 23-502) above
T5 sequence (P36544 23-502 E215A): as the sequence (P36544 23-502) above, with E193A counted along it
T6 sequence (P36544 23-502 S170A): as the sequence (P36544 23-502) above, with S148A counted along it
T4 sequence (P36544 23-502 S58A): as the sequence (P36544 23-502) above, with S36A counted along it
T7 sequence (P36544 23-502 Y115A): as the sequence (P36544 23-502) above, with Y93A counted along it
T3 sequence (P36544 23-502 Q139A): as the sequence (P36544 23-502) above, with Q117A counted along it
T9 sequence (P36544 23-502 L141A): as the sequence (P36544 23-502) above, with L119A counted along it
human α1 GlyR wt, sequence (P23415 29-457): as the sequence (P23415 29-457 L155A) above, with A127L counted along it
T2 sequence (P36544 23-502 W77A): as the sequence (P36544 23-502) above, with W55A counted along it

In the case of `COc1cc2c3cc1Oc1cc(ccc1O)C[C@@H]1c4c(cc(OC)c(O)c4Oc4ccc(cc4)C[C@@H]3N(C)CC2)CC[N+]1(C)C` [d-tubocurarine], the Ki (human α7 nAChR; competition with 3H-methyllycaconitine, human α7 nAChR, read-out: Ki) is given as 2.98 µM, the Ki (mouse 5-HT3R) is given as 0.138 ± 0.022 µM and the IC50 (human α7 nAChR W55A) is given as 16.7 ± 0.94 µM. For the same compound, the “difference in affinity between the two binding sites” value (muscle-type nAChR) was 100 fold, the IC50 (human α7 nAChR Q117A) was 2.28 ± 0.14 µM and the IC50 (human α7 nAChR S36A) was 2.25 ± 0.52 µM. For the same compound, the IC50 (human α7 nAChR E193A) was 8.1 ± 0.68 µM, the “difference in affinity between human and mouse 5-HT3R” value (5-HT3R) was “more than 1,000 fold” and the IC50 (human α7 nAChR S148A) was 176 ± 10.8 µM. The IC50 (human α7 nAChR Y93A) was 7.81 ± 0.98 µM, the IC50 (human α7 nAChR wt) was 1.19 ± 0.17 µM and the Ki (Ls-AChBP) was 0.171 ± 0.0183 µM. For the same compound, the IC50 (human α7 nAChR L119A) was 9.19 ± 2.16 µM, the IC50 (human α7 nAChR G167A) was “significant decrease in the IC50-values” and the IC50 (human α7 nAChR G167A; read-out: IC50) was 0.043 ± 0.002 µM.

For `O=C1C[C@@H]2OCC=C3CN4CC[C@]56c7ccccc7N1[C@H]5[C@H]2[C@H]3C[C@H]46` [strychnine], the Ki (human α7 nAChR) is given as 4.85 µM, the Ki (human α1 GlyR) is given as 0.016 ± 0.002 µM and the IC50 (α1 GlyR R65A [1]) is given as 0.16 ± 0.05 µM. For the same compound, the IC50 (human α1 GlyR A101F) was 0.583 ± 0.0476 µM, the mut/wt (human α1 GlyR A101F) was roughly 10 and the mut/wt (human α1 GlyR A101F; listed as Strychnine) was 12. For the same compound, the IC50 (human α1 GlyR Q177A) was 0.00336 ± 0.00063 µM, the mut/wt (human α1 GlyR Q177A) was “apparent increase in strychnine-potency” and the mut/wt (human α1 GlyR Q177A; listed as Strychnine) was 0.1. For the same compound, the IC50 (human α1 GlyR Q177A; α1 GlyR Q177A, co-applied with EC50 glycine) was “significant decrease in the IC50-values”, the IC50 (human α1 GlyR S158A) was 13.8 µM and the mut/wt (human α1 GlyR S158A) was 300. It also gave a mut/wt (human α1 GlyR S158A; listed as Strychnine) of 294, an IC50 (human α1 GlyR L127A) of 0.376 ± 0.0692 µM and a mut/wt (human α1 GlyR L127A) of roughly 10. The mut/wt (human α1 GlyR L127A; listed as Strychnine) was 8, the IC50 (human α1 GlyR wt) was 0.0468 ± 0.00875 µM and the IC50 (human α1 GlyR F44A) was 0.13 ± 0.00406 µM. It also gave a mut/wt (human α1 GlyR F44A) of 3, a mut/wt (human α1 GlyR F44A; listed as Strychnine) of 2.8 and an IC50 (human α1 GlyR S129A) of 0.358 ± 0.144 µM. For the same compound, the mut/wt (human α1 GlyR S129A) was roughly 10, the mut/wt (human α1 GlyR S129A; listed as Strychnine) was 8 and the IC50 (human α1 GlyR I210A) was 0.103 ± 0.019 µM. For the same compound, the mut/wt (human α1 GlyR I210A; IC50 α1 GlyR I210A over wt) was 2.2, the IC50 (human α1 GlyR Q67A) was 0.689 ± 0.176 µM and the mut/wt (human α1 GlyR Q67A) was 15. For the same compound, the mut/wt (human α1 GlyR Q67A; listed as Strychnine) was 14.7, the IC50 (human α1 GlyR F207A) was 5590 ± 1890 µM and the mut/wt (human α1 GlyR F207A; IC50 α1 GlyR F207A over wt) was 119,444. The IC50 (α1 GlyR F63A [2]) was 12 µM, the mut/wt (α1 GlyR F63A [3]) was 250 and the mut/wt (α1 GlyR F63A [3]; listed as Strychnine) was 256. The mut/wt (α1 GlyR R65A [4]) was 3, the mut/wt (α1 GlyR R65A [4]; listed as Strychnine) was 3.4 and the Ki (Ls-AChBP) was 0.224 ± 0.0263 µM.
